Source: the NIST ThermoML archive (doi:10.1016/j.fluid.2007.07.063)
Numbers after ± are expanded uncertainties. Blank lines part the entries; values can stand above or below the compound they belong to.

Tests used:
[1] = 298.15 K; 101.33 kPa; Liquid; Pycnometric method
[2] = excess molar enthalpy (molar enthalpy of mixing); xn = mol fraction of the nth substance listed; details: 298.15 K, 101 kPa, Liquid, Flow calorimetry

Compound: CCCCO [butan-1-ol]
mass density [1]: 805.71 ± 0.73 kg/m3

Compound: CCCCCCCCCCO [decan-1-ol]
mass density [1]: 826.31 ± 0.74 kg/m3

Compound: CCCCCCO [hexan-1-ol]
mass density [1]: 815.4 ± 0.78 kg/m3

Compound: C=CCCCCCC [oct-1-ene]
mass density [1]: 710.88 ± 0.64 kg/m3

Compound: CCCCCCCCO [octan-1-ol]
mass density [1]: 822.47 ± 0.83 kg/m3

Compound: CCCO [propan-1-ol]
mass density [1]: 799.65 ± 0.72 kg/m3

Next, values leading:

excess molar enthalpy ([2]; x2 = 0.097): 0.0643 ± 0.00335 kcal/mol
excess molar enthalpy ([2]; x2 = 0.195): 0.0875 ± 0.00454 kcal/mol
excess molar enthalpy ([2]; x2 = 0.293): 0.0956 ± 0.00478 kcal/mol
excess molar enthalpy ([2]; x2 = 0.406): 0.0924 ± 0.00478 kcal/mol
excess molar enthalpy ([2]; x2 = 0.504): 0.0834 ± 0.0043 kcal/mol
excess molar enthalpy ([2]; x2 = 0.602): 0.072 ± 0.00359 kcal/mol
excess molar enthalpy ([2]; x2 = 0.7): 0.0578 ± 0.00287 kcal/mol
excess molar enthalpy ([2]; x2 = 0.8): 0.0397 ± 0.00203 kcal/mol
excess molar enthalpy ([2]; x2 = 0.902): 0.0182 ± 0.000956 kcal/mol
Compound: C=CCCCCCC [oct-1-ene] + CCCCCCCCCCO

excess molar enthalpy ([2]; x2 = 0.097): 0.0699 ± 0.00359 kcal/mol
excess molar enthalpy ([2]; x2 = 0.194): 0.0935 ± 0.00478 kcal/mol
excess molar enthalpy ([2]; x2 = 0.292): 0.104 ± 0.00526 kcal/mol
excess molar enthalpy ([2]; x2 = 0.391): 0.103 ± 0.00526 kcal/mol
excess molar enthalpy ([2]; x2 = 0.49): 0.0942 ± 0.00478 kcal/mol
excess molar enthalpy ([2]; x2 = 0.6): 0.0814 ± 0.00406 kcal/mol
excess molar enthalpy ([2]; x2 = 0.699): 0.0631 ± 0.00311 kcal/mol
excess molar enthalpy ([2]; x2 = 0.799): 0.0429 ± 0.0022 kcal/mol
excess molar enthalpy ([2]; x2 = 0.899): 0.0188 ± 0.00098 kcal/mol
Compound: C=CCCCCCC [oct-1-ene] + CCCCCCCCO

excess molar enthalpy ([2]; x2 = 0.096): 0.0801 ± 0.00406 kcal/mol
excess molar enthalpy ([2]; x2 = 0.192): 0.105 ± 0.00526 kcal/mol
excess molar enthalpy ([2]; x2 = 0.307): 0.12 ± 0.00598 kcal/mol
excess molar enthalpy ([2]; x2 = 0.403): 0.118 ± 0.00598 kcal/mol
excess molar enthalpy ([2]; x2 = 0.5): 0.106 ± 0.00526 kcal/mol
excess molar enthalpy ([2]; x2 = 0.598): 0.0912 ± 0.00454 kcal/mol
excess molar enthalpy ([2]; x2 = 0.697): 0.0724 ± 0.00359 kcal/mol
excess molar enthalpy ([2]; x2 = 0.802): 0.0491 ± 0.00263 kcal/mol
excess molar enthalpy ([2]; x2 = 0.9): 0.0233 ± 0.00122 kcal/mol
Compound: C=CCCCCCC [oct-1-ene] + CCCCCCO

excess molar enthalpy ([2]; x2 = 0.095): 0.0949 ± 0.00478 kcal/mol
excess molar enthalpy ([2]; x2 = 0.209): 0.14 ± 0.00717 kcal/mol
excess molar enthalpy ([2]; x2 = 0.304): 0.154 ± 0.00789 kcal/mol
excess molar enthalpy ([2]; x2 = 0.4): 0.149 ± 0.00765 kcal/mol
excess molar enthalpy ([2]; x2 = 0.497): 0.132 ± 0.00669 kcal/mol
excess molar enthalpy ([2]; x2 = 0.595): 0.109 ± 0.0055 kcal/mol
excess molar enthalpy ([2]; x2 = 0.702): 0.0832 ± 0.0043 kcal/mol
excess molar enthalpy ([2]; x2 = 0.8): 0.0565 ± 0.00287 kcal/mol
excess molar enthalpy ([2]; x2 = 0.899): 0.0286 ± 0.00148 kcal/mol
Compound: C=CCCCCCC [oct-1-ene] + CCCCO

excess molar enthalpy ([2]; x2 = 0.094): 0.104 ± 0.00526 kcal/mol
excess molar enthalpy ([2]; x2 = 0.189): 0.154 ± 0.00789 kcal/mol
excess molar enthalpy ([2]; x2 = 0.302): 0.183 ± 0.00932 kcal/mol
excess molar enthalpy ([2]; x2 = 0.398): 0.179 ± 0.00908 kcal/mol
excess molar enthalpy ([2]; x2 = 0.495): 0.163 ± 0.00837 kcal/mol
excess molar enthalpy ([2]; x2 = 0.593): 0.143 ± 0.00717 kcal/mol
excess molar enthalpy ([2]; x2 = 0.693): 0.117 ± 0.00598 kcal/mol
excess molar enthalpy ([2]; x2 = 0.799): 0.0814 ± 0.00406 kcal/mol
excess molar enthalpy ([2]; x2 = 0.899): 0.0435 ± 0.00222 kcal/mol
Compound: C=CCCCCCC [oct-1-ene] + CCCO
